{
  "source": "patent US20230398116A1",
  "about": "“Agent for reversing resistance to anticancer drugs” (Y'S AC CO., LTD., priority 2020, published 2023)",
  "molecules": {"B1": {"name": "IL-26: recombinant human IL-26 dimers for cell stimulation, R&D Systems (protein)", "chain": "KHKQSSFTKSCYPRGTLSQAVDALYIKAAWLKATIPEDRIKNIRLLKKKTKKQFMKNCQFQEQLLSFFMEDVFGQLQLQGCKKIRFVEDFHSLRQKLSHCISCASSAREMKSITRMKRIFYRIGNKGIYKAISELDILLSWIKKLLESSQ"}, "B2": {"name": "69-10: mouse anti-human IL-26 monoclonal antibody, clone 69-10, from deposited hybridoma (antibody, V domains shown)", "VH": "QVTLKESGPGILKPSQTLSLTCSFSGFSLSTSGMGVGWIRQPSGKGLEWLAHIWWDDDKYYNPSLKSQLTISKDTSRNQVFLKITSVDTADTATYYCVRGGITATHYYAMDYWGQGTSVTVSS", "VL": "DIQMTQSPASQSASLGESVTISCLASQTIGTWLSWYQQKPGKSPQLLIYAATSLADGVPSRFSGSGSGTKFSFKISSLQAEDFVSYYCQQLYSSPWTFGGGTKLEIK"}},
  "key": {"MDA-MB468 cells": {"tested_on": "MDA-MB468 cells", "test": "MTT assay / cell proliferation (confluence) assay, MDA-MB468", "type": "cell-based, human", "protocol": "Human and mouse breast cancer cells (1×10^4) were cultured in 10% FCS containing RPMI1640 medium on a 96-well flat bottom plate (Corning, Tewksbury, MA) at 37° C. for 24 hours, and then stimulated with IL-26 for 48 hours in the presence or absence of EGFR-TKI (gefitinib or erlotinib) at various concentrations, a signal inhibitor, and a neutralizing antibody. HUVECs were seeded in a 96-well flat bottom plate at 5×10^3 cells/well in a 2% FBS-containing EGM medium in which growth factors were reduced by half, and cultured at 37° C. for 12 hours. Thereafter, the medium was aspirated, and a recombinant human IL-26 dimer was adjusted to a final concentration of 10 ng/mL in a 2% FBS-containing EGM medium containing no growth factors, and added to the cells. The stimulation was started in the presence or absence of control human IgG and anti-human IL-26 antibodies, and the cells were cultured for 48 hours. Thereafter, a concentration of 20 μl or 1/10 of a 5 mg/ml MTT solution (Tetrazolium monosodium salt, WST-8) was added to each well, and the plate was allowed to stand for 1 hour. The absorbance at 450 nm/595 nm was measured using Microplate Reader (Bio-Rad, Hercules, CA) and data was analyzed with Microplate Manager 6 software (Bio-Rad).\nHuman and mouse breast cancer cells (1×10^4) were cultured in RPMI1640 medium containing 10% FCS for 24 hours at 37° C. on a 96-well flat bottom plate (Corning), and then stimulated with IL-26 (30 ng/ml) in the presence or absence of various concentrations of gefitinib and a neutralizing antibody. Cell proliferation was measured as cell confluence using IncuCyte ZOOM (Essen Bioscience, Ann Arbor, MI)."}, "HCC70 cells": {"tested_on": "HCC70 cells", "test": "JC-1 staining (mitochondrial membrane potential) of HCC70 cells", "type": "cell-based, human", "details": "24 hours, FIG. 31", "protocol": "Mitochondrial stability was evaluated using the mitochondrial membrane potential (ΔΨm) assay kit (Cayman Chemical, Ann Arbor, MI, USA) utilizing JC-1 staining. HCC70 cells (1×10^4 cells) were stimulated with IL-26 (30 ng/ml) in the presence or absence of gefitinib (40 μM), a signal inhibitor, and a neutralizing antibody in 96-well flat bottom plate (Corning) for 24 hours. […] Stained cells were quantified using Image-J software (NIH). Images were captured using a 40× objective."}, "E0771 cells": {"tested_on": "E0771 cells", "test": "In vivo TNBC transplantation model (E0771 in hIL-26Tg or control mice)", "design": "species or system mouse", "protocol": "E0771 cells (5×10^5) with 50% Matrigel were injected subcutaneously into the flank of hIL-26Tg mice or control mice. Tumor measurements were performed using caliper and volume was calculated using an equation (v=width×width×(length/2)). gefitinib was suspended in H2O with 1% tween (registered trademark) 80 for oral administration (50 mg/kg). Ten days after injection of E0771 cells, the oral administration once a day was performed 5 times a week. As a control, 1% tween (registered trademark) 80 containing H2O without Gefiinib was administered. The monoclonal antibody (mAb) treatment was performed by diluting anti-IL-26 mAb (clone 69-10) (Hatano R et al., MAbs (2019) 1-15, and JP 2009-99492 A) or mouse IgG1 isotype control to 1 mg/ml with sterile PBS, and by intraperitoneal injection of 200 μl (200 μg) once a day twice a week starting on day 10 after E0771 cell injection. Mice were sacrificed until subcutaneous tumor size reached 1600 mm^3. E0771 and HCC70 cells (1×10^5) were cultured for 24 hours in RPMI1640 medium with 10% FCS on Lab-Tek chamber slides (Thermo Fisher Scientific). […] Subcutaneous tumor samples obtained from mice were fixed in 4% paraformaldehyde (Thermo Fisher Scientific) and embedded in OCT compound (Tissue-Tek (registered trademark), Sakura Finetek, Japan). Cells and slides were immunostained with each antibody and observed using a Zeiss inverted microscope and Axiovision 2.0 program (Carl Zeiss, Germany). The fluorescence intensity was quantified with Image-J software (NIH). The images were captured using a 100×400× objective."}, "IL-26": {"molecular_target": "T1, IL-26 (Homo sapiens, UniProt Q9NPH9)", "T1 sequence (Q9NPH9 22-171)": "B1 chain", "test": "ELISA of antigen binding to human IL-26", "design": "purchased R&D Systems 1375-IL/CF", "details": "plates coated with 0.5 μg/ml human IL-26 monomer; calculated using GraphPadPrism", "protocol": "The antigen binding of purified Ch69-10-IgG1, Hu69-10A-IgG1, and Hu69-10B-IgG1 was analyzed by ELISA. ELISA plates were coated overnight at 4° C. with the addition of 0.5 μg/ml human IL-26 (recombinant human IL-26/AK155 monomer, Cat #1375-IL/CF, R&D Systems, Minneapolis, MN) at 100 μl/well in 0.2 M sodium carbonate buffer (pH 9.4). Wells were washed with the wash buffer and blocked with the ELISA buffer. Subsequently, 100 μl/well of test antibody (mouse 69-10, Ch69-10-IgG1, Hu69-10A-IgG1, or Hu69-10B-IgG1) serially diluted 2-fold in RPMI medium starting at 5 μg/ml was added to measure a binding with IL-26. After incubation at room temperature for 1 hour and washing the plates with a wash buffer, a 1/2,000-diluted HRP-conjugated goat anti-human kappa chain polyclonal antibody (Bethyl Laboratories) (for Ch69-10-IgG1, Hu69-10A-IgG1 and Hu69-10B-IgG1) or a 1/2,000-diluted HRP-labeled goat anti-mouse kappa chain polyclonal antibody (Bethyl Laboratories) (for mouse 69-10) in ELISA buffer was added at 100 μl/well to detect bound antibodies. After incubation at room temperature for 30 min and washing with the wash buffer, 100 μl/well of ABTS substrate (Sigma Aldrich) was added to start color development and 100 μl/well of 2% oxalic acid was added to stop the color development. The absorbance was measured at 405 nm."}},
  "data": [
    {"molecule": "COc1cc2ncnc(Nc3ccc(F)c(Cl)c3)c2cc1OCCCN1CCOCC1", "note": "[gefitinib, Gefitinib, reference compound]", "values": [
      {"measurement": "cell proliferation under gefitinib", "setting": "MDA-MB468 cells; MDA-MB468, 48 hours, FIGS. 4A, 4B", "value": "suppression of cell proliferation"},
      {"measurement": "mitochondrial activity, gefitinib treatment", "setting": "HCC70 cells; HCC70, gefitinib 40 μM", "value": "significantly reduced mitochondrial activity"},
      {"measurement": "number of Ly6G+ granulocytes infiltrating TME", "setting": "E0771 cells; gefitinib-treated WT and hIL-26Tg mice compared to vehicle-treated, FIG. 40", "value": "significantly increased"},
      {"measurement": "phosphorylation of AKT in tumor cells", "setting": "E0771 cells; gefitinib-treated WT mice, tumor resected 14 days after inoculation, FIG. 41", "value": "strongly suppressed"},
      {"measurement": "phosphorylation of JNK in tumor cells", "setting": "E0771 cells; gefitinib-treated WT mice, tumor resected 14 days after inoculation, FIG. 42", "value": "strongly suppressed"},
      {"measurement": "tumor growth in hIL-26Tg mice", "setting": "E0771 cells; hIL-26Tg mice, gefitinib 50 mg/kg oral gavage, FIG. 35", "value": "tumor suppression by gefitinib was significantly inhibited"},
      {"measurement": "tumor growth in control mice", "setting": "E0771 cells; littermate control (WT) mice, gefitinib 50 mg/kg oral gavage once a day, five times a week, FIG. 35", "value": "suppressed"}
    ]},
    {"molecule": "B1", "values": [
      {"measurement": "effect of exogenous IL-26 on suppression of cell proliferation by gefitinib", "setting": "MDA-MB468 cells; MDA-MB468, 48 hours", "value": "inhibited"},
      {"measurement": "effect of exogenous IL-26 on inhibitory effect of erlotinib", "setting": "MDA-MB468 cells; MDA-MB-468, IL-26 30 ng/ml, erlotinib 30 μM or 50 μM, 48 hours, MTT", "value": "inhibited the inhibitory effect of erlotinib on cell proliferation"},
      {"measurement": "mitochondrial activity, IL-26 with gefitinib", "setting": "HCC70 cells; HCC70, IL-26 30 ng/ml, gefitinib 40 μM", "value": "significantly inhibited the reduction in mitochondrial activity"}
    ]},
    {"molecule": "B2", "values": [
      {"measurement": "EC50 values (binding to human IL-26, ELISA)", "setting": "IL-26", "value": 0.34, "unit": "µg/mL"},
      {"measurement": "tumor growth, anti-IL-26 mAb and gefitinib", "setting": "E0771 cells; hIL-26Tg mice, clone 69-10 200 μg/dose i.p. twice a week with gefitinib, compared to gefitinib alone, FIG. 36", "value": "significantly reduced"},
      {"measurement": "tumor growth, anti-IL-26 mAb alone", "setting": "E0771 cells; hIL-26Tg mice, not illustrated", "value": "no effect on tumor growth"}
    ]}
  ]
}
